{"source": "patent US20150164855A1", "about": "“KETONE BODIES AND KETONE BODY ESTERS FOR MAINTAINING OR IMPROVING MUSCLE POWER OUTPUT” (priority 2012, published 2015)", "assay_type_in_all_cases": "in vivo", "key": {"[1]": {"assay": "Blood (R)-3-hydroxybutyrate concentration in rats following administration of ketones", "settings": "for Peak Blood (R)-3-hydroxybutyrate: rats fed sour cream mix containing 2 g ketone in 10 ml water, blood before feeding and after 1, 3 and 6 hours", "description": "Experiments were carried out to determine the concentration of blood (R)-3-hydroxybutyrate in rats following administration of various ketones. The ketones tested are set out in Table 4 below. The ketones were tasted in the same manner as Ketones 1 to 8 above.\n(§1) Rats were each fed with a sour cream mix containing 2 g of a ketone as set out in […] in 10 ml water. Samples of blood from each rat were taken immediately prior to feeding, after 1 hour, 3 hours and 6 hours to determine the blood concentration of (R)-3-hydroxybutyrate. Two controls (Control A and Control B) were also tested by feeding with the same mix without the ketone added. The rats were humanely killed and dissected for visual inspection to determine whether pyloric constriction or other visible changes had occurred.\nBlood was extracted and 0.1 ml of whole blood was added to 0.4 ml 3.6% perchloric acid subjected to vortex and then allowed to rest in ice for 30 minutes and then spun. 350 ul of acidic supernatant were then transferred to a new tube and 5 ul phenol red (0.05%), 20 ul 1 M Imidazole pH 7 and 3 M KHCO3 was added to neutralize the solution which was allowed to stand in ice for 30 minutes and then spun. A sample of the neutralized blood extract was then assayed for (R)-3-hydroxybutyrate."}, "[2]": {"assay": "Uptake of oligomeric ketones into the blood (Example 2)", "description": "Procedures were carried out to determine the uptake of oligomeric ketones into the blood."}, "[3]": {"assay": "Visual inspection of dissected rats for pyloric constriction or other visible changes", "settings": "rats fed 2 g ketone, killed and dissected for visual inspection", "description": "as §1, with “Samples of blood from each rat were taken immediately prior to feeding, after 1 hour, 3 hours and 6 hours to determine the blood concentration of (R)-3-hydroxybutyrate.” left out"}, "[4]": {"assay": "Single oral dose/response of blood (R)-3-hydroxybutyrate (Example 5)", "settings": "192, 291, 395 and 573 mg/kg single dose", "description": "(R)-3-hydroxybutyrate-R-1,3-butanediol monoester was administered in a single dose based on a fixed amount per kg of body weight of the subject to a number of subjects. The blood (R)-3-hydroxybutyrate concentration was determined over a period of time to determine the dose/response relationship between the oral single dose and the blood concentration of (R)-3-hydroxybutyrate. The procedure was repeated with different quantities of (R)-3-hydroxybutyrate-R-1,3-butanediol monoester to provide data on the dose/response relationship for (R)-3-hydroxybutyrate-R-1,3-butanediol monoester when administered at 192 mg/kg, 291 mg/kg, 395 mg/kg and 573 mg/kg."}}}
{"compound": "CC(O)CC(=O)OC(C)CC(=O)OC(C)CC(=O)OCC[C@@H](C)OC(=O)CC(C)OC(=O)CC(C)OC(=O)CC(C)O", "note": "(stereo partly drawn) [Ketone 10, (R)-1,3-butanediol ditriolide ester]", "values": [{"measurement": "Peak Blood (R)-3-hydroxybutyrate", "setting": "[1]", "result": "about 1.5 mM"}, {"measurement": "level of uptake to the blood relative to the linear/other oligomers tested (Ketones 9, 11 and 12)", "setting": "[1]; rats, 2 g ketone", "result": "around 10 times"}, {"measurement": "blood level of (R)-3-hydroxybutyrate (peak)", "setting": "[2]", "result": "about 1.5 mM"}]}
{"compound": "(R)-3-hydroxybutyrate-(R)-1,3-butanediol [Ketone 8]", "values": [{"measurement": "Peak Blood (R)-3-hydroxybutyrate", "setting": "[1]", "result": 6, "unit": "mM"}, {"measurement": "level of uptake to the blood relative to the triolide diester oligomer (Ketone 10)", "setting": "[1]; rats, 2 g ketone", "result": "around 4 times"}, {"measurement": "Symptoms", "setting": "[3]", "result": "No pyloric constriction, no gas"}, {"measurement": "blood level of (R)-3-hydroxybutyrate (peak)", "setting": "[2]", "result": 6000, "unit": "µM"}, {"measurement": "blood (R)-3-hydroxybutyrate concentration after single oral dose", "setting": "[4]", "result": "levels not previously reported with other ketones"}]}
